Measured values published in ChEMBL document CHEMBL3400064, “Synthesis and biological evaluation of 2-arylbenzimidazoles targeting Leishmania donovani” (Bioorg Med Chem Lett, 2015).

How the values were obtained:
[1] = system: Leishmania donovani; assay: Antileishmanial activity against axenic amastigote Leishmania donovani MHOM/SD/1962/1S-Cl2d assessed as inhibition of parasite growth after 24 hrs at 5 uM by alamarBlue assay; assay type: functional
[2] = system: Leishmania donovani; assay: Antileishmanial activity against axenic amastigote Leishmania donovani MHOM/SD/1962/1S-Cl2d assessed as inhibition of parasite growth after 24 hrs at 50 uM by alamarBlue assay; assay type: functional
[3] = system: Leishmania donovani; assay: Antileishmanial activity against axenic amastigote Leishmania donovani MHOM/SD/1962/1S-Cl2d assessed as inhibition of parasite growth after 24 hrs at 15 uM by alamarBlue assay; assay type: functional
[4] = Cytotoxicity against mouse NIH/3T3 cells assessed as viability at 15 uM after 48 hrs by alamarBlue assay; assay type: cell-based, NIH3T3; conditions: read-out: Activity
[5] = Cytotoxicity against mouse NIH/3T3 cells assessed as viability after 48 hrs by alamarBlue assay; assay type: cell-based; conditions: NIH3T3, 48 h
[6] = system: Leishmania donovani; assay: Antileishmanial activity against Leishmania donovani MHOM/SD/1962/1S-Cl2d infected THP1 cells assessed as inhibition of intracellular […] amastigote after 48 hrs at 50 uM by Bright-Glo luciferase assay; assay type: functional, organism-based; conditions: THP-1, 48 h
[7] = system: Leishmania donovani; assay: Antileishmanial activity against Leishmania donovani MHOM/SD/1962/1S-Cl2d infected THP1 cells assessed as inhibition of intracellular […] amastigote at 5 uM after 48 hrs at 50 uM by Bright-Glo luciferase assay; assay type: functional, THP-1

Row | IC50 [6] | Structure (SMILES) | inhibition at 5 µM [1] | inhibition at 50 µM [2] | inhibition at 15 µM [3] | viability at 48 h, 15 µM [4] | IC50 [5] | inhibition (INH) [7]
1 | – | CC(=O)Nc1cccc(-c2nc3ccccc3[nH]2)c1 | 20% | 56% | 21% | – | – | –
2 | – | Cn1cccc1C(=O)Nc1cccc(-c2nc3ccccc3[nH]2)c1 | – | 33% | – | – | – | –
3 | – | O=C(Nc1cccc(-c2nc3ccccc3[nH]2)c1)c1cscn1 | – | 45% | – | – | – | –
4 | – | Cc1cccc(C(=O)Nc2cccc(-c3nc4ccccc4[nH]3)c2)c1 | 26% | 59% | 52% | – | – | –
5 | – | O=C(Nc1cccc(-c2nc3ccccc3[nH]2)c1)c1cccc(C(F)(F)F)c1 | 17% | 83% | 68% | – | – | –
6 | – | O=C(Nc1cccc(-c2nc3ccccc3[nH]2)c1)c1cccc(Cl)c1 | 26% | 57% | 60% | – | – | –
7 | – | COc1cccc(C(=O)Nc2cccc(-c3nc4ccccc4[nH]3)c2)c1 | – | 49% | – | – | – | –
8 | – | COC(=O)c1cccc(C(=O)Nc2cccc(-c3nc4ccccc4[nH]3)c2)c1 | 18% | 100% | 74% | – | – | –
9 | – | Cc1ccccc1C(=O)Nc1cccc(-c2nc3ccccc3[nH]2)c1 | 22% | 55% | 47% | – | – | –
10 | – | O=C(Nc1cccc(-c2nc3ccccc3[nH]2)c1)c1ccccc1C(F)(F)F | 22% | 82% | 73% | – | – | –
11 | – | COc1ccccc1C(=O)Nc1cccc(-c2nc3ccccc3[nH]2)c1 | 23% | 75% | 27% | – | – | –
12 | – | CC(C)(C)C(=O)Nc1cccc(-c2nc3ccccc3[nH]2)c1 | 27% | 54% | 44% | – | – | –
13 | 8.8 µM | O=C(Nc1cccc(-c2nc3ccccc3[nH]2)c1)C1CCCCC1 | 41% | 68% | 61% | 23.8% | 22.2 µM | 19.8%
14 | 10.5 µM | Cc1ccc2[nH]c(-c3cccc(NC(=O)c4cccs4)c3)nc2c1 | 36% | 77% | 50% | 14.1% | 16.7 µM | 4.1%
15 | – | O=C(Nc1cccc(-c2nc3cc(Cl)ccc3[nH]2)c1)c1cccs1 | 11% | 80% | 57% | – | – | –
16 | 17.8 µM | Cc1cccc2[nH]c(-c3cccc(NC(=O)c4cccs4)c3)nc12 | 32% | 83% | 56% | 5.3% | > 300 µM | 46.4%
17 | – | Cc1c(NC(=O)c2cccs2)cccc1-c1nc2ccccc2[nH]1 | – | 31% | – | – | – | –
18 | – | COc1ccc(-c2nc3ccccc3[nH]2)cc1NC(=O)c1cccs1 | – | 38% | – | – | – | –
19 | 22.1 µM | Cn1c(-c2cccc(NC(=O)c3cccs3)c2)nc2ccccc21 | 30% | 74% | 56% | -12.9% | 61.3 µM | 27.7%

Row | IC50 [6] | Structure (SMILES) | inhibition at 5 µM [1] | inhibition at 50 µM [2] | inhibition at 15 µM [3] | viability at 48 h, 15 µM [4] | IC50 [5] | inhibition (INH) [7]
20 | – | O=S(=O)(Nc1cccc(-c2nc3ccccc3[nH]2)c1)c1ccccc1 | 0% | 52% | 30% | – | – | –
21 | – | O=C(Nc1cccc(-c2nc3ccccc3o2)c1)c1cccs1 | – | 34% | – | – | – | –
22 | – | O=C(Nc1ccc(-c2nc3ccccc3[nH]2)cc1)c1cccs1 | – | 22% | – | – | – | –
23 | – | O=C(Nc1cccc(-c2nc3ccccc3[nH]2)c1)c1ccsc1 | 17% | 83% | 67% | – | – | –
24 | – | O=C(Cc1cccs1)Nc1cccc(-c2nc3ccccc3[nH]2)c1 | – | 49% | – | – | – | –
25 | – | O=C(Nc1cccc(-c2nc3ccccc3[nH]2)c1)c1ccco1 | – | 43% | – | – | – | –
26 | – | O=C(Nc1cccc(-c2nc3ccccc3[nH]2)c1)c1ccoc1 | 19% | 80% | 39% | – | – | –
27 | – | O=C(Nc1cccc(-c2nc3ccccc3[nH]2)c1)c1ccccn1 | 19% | 57% | 35% | – | – | –
28 | – | O=C(Nc1cccc(-c2nc3ccccc3[nH]2)c1)c1ccccc1F | 24% | 74% | 37% | – | – | –
29 | – | O=C(Nc1cccc(-c2nc3ccccc3[nH]2)c1)c1ccccc1 | 17% | 56% | 43% | – | – | –
30 | – | CCCCC(=O)Nc1cccc(-c2nc3ccccc3[nH]2)c1 | 15% | 82% | 67% | – | – | –
31 | – | O=C(Nc1cccc(-c2nc3ccccc3[nH]2)c1)C1CCCC1 | 22% | 87% | 76% | – | – | –
32 | – | O=C(Nc1ccccc1)Nc1cccc(-c2nc3ccccc3[nH]2)c1 | 13% | 84% | 73% | – | – | –
33 | – | O=C(Nc1cccc(-c2nc3ccccc3[nH]2)c1)NC1CCCCC1 | 24% | 94% | 90% | – | – | –
34 | – | O=C(Nc1ccccc1)Nc1ccccc1-c1nc2ccccc2[nH]1 | 12% | 67% | 16% | – | – | –
35 | 7.6 µM | O=C(Nc1ccccc1-c1nc2ccccc2[nH]1)NC1CCCCC1 | 36% | 88% | 65% | -4.4% | 42.2 µM | 22.2%
36 | – | O=C(Nc1ccccc1)c1cccc(-c2nc3ccccc3[nH]2)c1 | 8% | 87% | 57% | – | – | –
37 | – | O=C(Nc1ccccc1-c1nc2ccccc2[nH]1)c1cccs1 | 26% | 51% | 26% | – | – | –
38 | – | O=C(Nc1cccc(-c2cc3ccccc3[nH]2)c1)c1cccs1 | 16% | 86% | 33% | – | – | –

Row | IC50 [6] | Structure (SMILES) | inhibition at 5 µM [1] | inhibition at 50 µM [2] | inhibition at 15 µM [3] | viability at 48 h, 15 µM [4] | IC50 [5] | inhibition (INH) [7]
39 | – | CCn1c(-c2cccc(NC(=O)c3cccs3)c2)nc2ccccc21 | 24% | 87% | 81% | – | – | –
40 | – | CCCn1c(-c2cccc(NC(=O)c3cccs3)c2)nc2ccccc21 | 25% | 86% | 70% | – | – | –
41 | – | CN(C(=O)c1cccs1)c1cccc(-c2nc3ccccc3[nH]2)c1 | 3% | 40% | 21% | – | – | –
42 | – | O=C(Cc1cccs1)Nc1cccc(-c2ncc[nH]2)c1 | – | 0% | – | – | – | –
43 | – | CCc1ccccc1C(=O)Nc1cccc(-c2nc3ccccc3[nH]2)c1 | 21% | 88% | 52% | – | – | –
44 | – | O=C(Nc1cccc(-c2nc3ccccc3[nH]2)c1)c1ccccc1Cl | 23% | 79% | 55% | – | – | –
45 | – | O=C(O)c1cccc(C(=O)Nc2cccc(-c3nc4ccccc4[nH]3)c2)c1 | – | 0% | – | – | – | –
46 | – | COc1ccc(C(=O)Nc2cccc(-c3nc4ccccc4[nH]3)c2)cc1 | 35% | 64% | 52% | 54.1% | – | –
47 | 23.4 µM | O=C(Nc1cccc(-c2nc3ccccc3[nH]2)c1)c1ccc(F)cc1 | 32% | 69% | 50% | -11.9% | 15.4 µM | 16%
48 | – | O=C(Nc1cccc(-c2nc3ccccc3[nH]2)c1)c1ccc(Cl)cc1 | 27% | 63% | 41% | – | – | –
49 | – | O=C(Nc1cccc(-c2nc3ccccc3[nH]2)c1)c1ccc(-c2ccccc2)cc1 | 41% | 96% | 80% | 88.7% | – | –
50 | – | Cc1cc(C)cc(C(=O)Nc2cccc(-c3nc4ccccc4[nH]3)c2)c1 | 22% | 88% | 56% | – | – | –
51 | – | Cc1ccc(C)c(C(=O)Nc2cccc(-c3nc4ccccc4[nH]3)c2)c1 | 15% | 78% | 28% | – | – | –
52 | – | COc1cc(OC)cc(C(=O)Nc2cccc(-c3nc4ccccc4[nH]3)c2)c1 | 32% | 83% | 58% | – | – | –
53 | – | O=C(Nc1cccc(-c2nc3ccccc3[nH]2)c1)c1cc(Cl)cc(Cl)c1 | 28% | 97% | 44% | – | – | –
54 | – | O=C(Nc1cccc(-c2nc3ccccc3[nH]2)c1)c1cc(Br)cc(Br)c1 | 29% | 72% | 55% | – | – | –
55 | 25.1 µM | O=C(Nc1cccc(-c2nc3ccccc3[nH]2)c1)c1cccs1 | 39% | 66% | 48% | -0.6% | 15 µM | 21.7%
56 | – | Cc1ccc(C(=O)Nc2cccc(-c3nc4ccccc4[nH]3)c2)cc1 | 23% | 82% | 71% | – | – | –
